Laboratory results published in PubChem BioAssay (NCI).
Values joined by “and” are separate entries in the source; they are usually repeats but may differ in a detail not shown here. Equal entries are not always repeated.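 These data come from cells grown in 96-well plates and exposed to compound for 48 hours at five concentrations. GI50: concentration for 50% inhibition of growth. TGI denotes the concentration required for complete inhibition of growth.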 Where a SMILES comes first, the peptide text is derived from it.

Experiments:
Test in all cases: NCI tumour cell line growth inhibition, 48 h
SW-620 colon = tested on: SW-620 colon
OVCAR-3 ovarian = tested on: OVCAR-3 ovarian
U251 CNS = tested on: U251 CNS
HCT-116 colon = tested on: HCT-116 colon
MCF7 breast = tested on: MCF7 breast
UACC-257 melanoma = tested on: UACC-257 melanoma
NCI-H226 lung = tested on: NCI-H226 lung
NCI/ADR-RES ovarian = tested on: NCI/ADR-RES ovarian
SNB-19 CNS = tested on: SNB-19 CNS
NCI-H522 lung = tested on: NCI-H522 lung

Row | Compound | TGI (SW-620 colon) | TGI (OVCAR-3 ovarian) | TGI (U251 CNS) | TGI (HCT-116 colon) | TGI (MCF7 breast) | TGI (UACC-257 melanoma) | TGI (NCI-H226 lung) | TGI (NCI/ADR-RES ovarian) | TGI (SNB-19 CNS) | TGI (NCI-H522 lung) | GI50 (SW-620 colon) | GI50 (OVCAR-3 ovarian) | GI50 (U251 CNS) | GI50 (NCI-H226 lung) | GI50 (NCI/ADR-RES ovarian) | GI50 (HCT-116 colon) | GI50 (MCF7 breast) | GI50 (UACC-257 melanoma) | GI50 (SNB-19 CNS) | GI50 (NCI-H522 lung)
1 | CC1C(=O)CC(c2cccs2)N(N=O)C1c1cccs1 (configuration not stated) | > 100 µM | > 79.5 µM | > 100 µM | > 100 µM | 88.5 µM | > 100 µM | > 100 µM | > 100 µM | > 100 µM | > 100 µM |  |  |  |  |  |  |  |  |  | 
2 | N#CC1=C2SCCN2C(=O)C(C#N)C12CCCCC2 (configuration not stated) | > 100 µM | > 100 µM | > 100 µM | > 100 µM | > 100 µM | > 100 µM | > 100 µM | > 100 µM | > 100 µM | > 100 µM |  |  |  |  |  |  |  |  |  | 
3 | CN(Cc1cn(O)c2nc(=N)nc(N)c-2n1)c1ccc(C(=O)NC23CC4CC(CC(C4)C2)C3)cc1 | > 100 µM | > 100 µM | > 100 µM | > 100 µM | > 100 µM | > 100 µM | > 100 µM | > 100 µM | > 100 µM |  |  |  |  |  |  |  |  |  |  | 
4 | CN(C)CCNC(=O)c1cc(Cl)cc2cc3ccccc3nc12 | 7.02 µM | 16 µM | 8.4 µM | 7 µM | 4.53 µM | 3.66 µM | 3.89 µM | 5.82 µM | 7.47 µM |  |  |  |  |  |  |  |  |  |  | 
5 | CCOC(=O)CCC(C(=O)OCC)n1nc2ccc(Nc3c(C)[n+]([O-])c4cc(F)c(OCC)cc4[n+]3[O-])cc2n1 (configuration not stated) | > 100 µM | > 100 µM | 62.7 µM | > 100 µM | > 100 µM | > 100 µM | > 100 µM | > 100 µM | > 100 µM | > 100 µM |  |  |  |  |  |  |  |  |  | 
6 | NC(=O)C1CCCN1C(=O)C(N)Cc1ccccc1 (stereo not drawn) (H-Phe-Pro-NH2; configuration not given here) | > 100 µM | > 100 µM | > 100 µM | > 100 µM | > 100 µM |  |  | > 100 µM | > 100 µM | > 100 µM |  |  |  |  |  |  |  |  |  | 
7 | NC(CCOCCP(=O)(O)CCC1C=CC=CC1)C(=O)O (configuration not stated) | > 100 µM | > 100 µM | > 100 µM | > 100 µM | > 100 µM | > 100 µM |  | > 100 µM | > 100 µM | > 100 µM |  |  |  |  |  |  |  |  |  | 
8 | O=C(CSCC(=O)N/N=C/c1ccccc1)N/N=C\c1ccccc1 | > 100 µM | > 100 µM | > 100 µM | > 100 µM | > 100 µM | > 100 µM | > 100 µM | > 100 µM | > 100 µM | > 100 µM |  |  |  |  |  |  |  |  |  | 
9 | CCCCCCCCCCCCCCCCCCNc1ccn(C2OC(CO)C(OP(=O)(O)OCC(O)COP(=O)(O)OCC3OC(n4cc(F)c(NCCCCCCCCCCCCCCCCCC)nc4=O)CC3O)C2O)c(=O)n1 (configuration not stated) | > 50 µM | > 50 µM | > 50 µM | > 50 µM | > 50 µM | > 50 µM | > 50 µM | > 50 µM | > 50 µM | > 50 µM |  |  |  |  |  |  |  |  |  | 
10 | CC[C@@]1(O)C(=O)OCc2c1cc1n(c2=O)Cc2cc3ccccc3nc2-1 | 5.81 µM | 0.726 µM | 0.769 µM | 1.91 µM | 0.203 µM | 0.592 µM | 0.177 µM | 0.125 µM | > 30.9 µM | 0.596 µM | 0.0246 µM | 0.214 µM | < 0.0129 µM | 0.0202 µM | < 0.0143 µM |  |  |  |  | 
11 | OCC(O)CNc1ncnc2ccccc12 (configuration not stated) | > 100 µM | > 100 µM | > 100 µM | > 100 µM | > 100 µM | > 100 µM | > 100 µM | > 100 µM | > 100 µM | > 100 µM |  |  |  |  |  |  |  |  |  | 
12 | CCCCCCCCCCCCCC1=C(O)C(=O)C(CC2=C(O)C(=O)C(CCCCCCCCCCCCC)=C(O)C2=O)=C(O)C1=O | > 100 µM | > 100 µM | > 100 µM | > 100 µM | > 100 µM | > 100 µM | > 100 µM |  | 92.9 µM | > 100 µM |  |  |  |  |  |  |  |  |  | 
13 | CN(CC(=O)O)Cc1c(O)c(Cl)cc(Cl)c1Cl | > 100 µM | 38.8 µM | > 100 µM | > 100 µM | > 100 µM | 97.5 µM | 92.1 µM | > 100 µM | > 100 µM | > 100 µM |  |  |  |  |  |  |  |  |  | 
14 | Clc1cc(Cl)c2cc3cccc[n+]3cc2c1Cl | 34.3 µM | 26.8 µM | 34.7 µM | > 100 µM | 31.9 µM | 28.9 µM | 43.6 µM | 33.2 µM | 28.7 µM |  |  |  |  |  |  |  |  |  |  | 
15 | OC[C@H]1NC[C@@H](O)[C@@H](O)[C@H]1O | > 100 µM | > 100 µM | > 100 µM | > 100 µM | > 100 µM | > 100 µM | > 100 µM | > 100 µM | > 100 µM |  |  |  |  |  |  |  |  |  |  | 
16 | C[C@@H]1C(=O)O[C@H]1[C@H](O)CO | > 100 µM | > 100 µM | > 100 µM | > 100 µM | > 100 µM | > 100 µM |  | > 100 µM | > 100 µM |  |  |  |  |  |  |  |  |  |  | 
17 | Nc1[nH]c(=S)nc2nc3c(c(-c4ccccc4)c12)CCCC3 | > 100 µM | > 100 µM | > 100 µM | > 100 µM | > 100 µM |  |  | > 100 µM | > 100 µM |  |  |  |  |  |  |  |  |  |  | 
18 | CCN(CC)CC[n+]1ccc2c(C)c3[nH]c4ccc(O)cc4c3c(C)c2c1 | 93.1 µM and 88.3 µM | 57.9 µM and 51.9 µM | 9.12 µM and 11.1 µM | 26.7 µM and 30.8 µM | 34.5 µM and 80.6 µM | 43.9 µM and 91.6 µM | 6.64 µM and 3.58 µM | 79.6 µM and 102 µM | 8.76 µM and 10.8 µM | 10.7 µM and 8.66 µM |  | 6.62 µM | 0.624 µM | 0.631 µM | 21.7 µM | 4.36 µM | 1.74 µM | 24.2 µM | 0.634 µM | 1.56 µM
19 | COC(=O)C1=C(C)N2CCSC2(C)C(C(=O)OC)C1c1cccc(Cl)c1 (configuration not stated) | > 100 µM | 34.6 µM |  | 34.9 µM |  | 21.7 µM | 47.4 µM |  | 73.2 µM |  |  |  |  |  |  |  |  |  |  | 
20 | CNC1Cc2c[nH]c3cccc(c23)C12C=C(C)C(=O)O2 (configuration not stated) | > 100 µM | > 100 µM | > 100 µM | > 100 µM | > 100 µM | > 100 µM | > 100 µM | > 100 µM | > 100 µM | > 100 µM |  |  |  |  |  |  |  |  |  | 
